Where two headings read alike, the source gives them in different places.
Tests used:
[1] = Plasma pharmacokinetics of LAAM in rabbits (intravenous, oral, buccal); conditions: rabbit
Protocol: Twenty-four New Zealand white rabbits of mixed gender (weighing 3.6-4.0 kg) were obtained from ENVIGO and used in this study. […] All animal protocols were approved by the Institutional Animal Care and Use Committee at the Virginia Commonwealth University. […] Rabbits were anesthetized following an intramuscular injection of ketamine (50 mg/kg) and xylazine (5-7 mg/kg), followed by applying buccal films (1 mg/kg) into the buccal pouch. […] An oral solution (1 mg/kg) was administered by an oral syringe (1 mL), followed by an injection of ketamine/xylazine. After anesthesia, a catheter was inserted via the marginal ear vein for blood collection before dosing and at pre-determined time points (30 min before and at 5, 15, 30 min, and 1, 2, 3, 4, 8, 12, 24, 48, 72, 96, and 120 h) following administration. Eppendorf tubes contained EDTA (0.5 M) to prevent blood coagulation. Blood samples were placed on ice immediately following the collection for no longer than 5 min, plasma was separated by centrifugation (3000 g, at 0° C. for 3 min) and stored at −80° C. until analysis. At the endpoint (120 h), all animals were sacrificed. Urine, interest tissues (buccal mucosa, kidney, spleen, liver, gallbladder, muscle, brain, and spinal cord, mesenteric fat, perirenal fat, neck fat, inguinal fat) were harvested and stored at −80° C. until analysis. The buccal mucosa tissues and control in contact with fiber film formulations were collected for histopathological analysis using H&E staining. […] Non-compartmental analysis (NCA) was applied to calculate pharmacokinetic parameters derived from plasma concentration-time profiles. The absolute bioavailability was subsequently calculated by comparing respective AUCs, as shown by the following equation: […]

[2] = weak base; cited from earlier work
[3] = humans; cited from earlier work
[4] = rats; cited from earlier work
[5] = high permeability according to the FDA; cited from earlier work
[6] = both, New Zealand white, plasma, iv, 0.8 mg/kg
[7] = both, New Zealand white, plasma, po, 1 mg/kg

Row | Structure (SMILES) | AUC(0-inf) [1, 6] | AUC(0-t) [1, 6] | C0 [1, 6] | Vd [1, 6] | clearance [1, 6] | AUC(0-inf) [1, 7] | AUC(0-t) [1, 7] | Cmax [1, 7] | Tmax [1, 7] | LAAM F (%), bioavailability, calculated by AUCinf ([1]; LAAM oral solution 1 mg/kg) | pKa [2] | Oral bioavailability (Foral %) [3] | Oral bioavailability (Foral %) [4] | Permeability of model drug [5]
1 | CC[C@H](OC(C)=O)C(C[C@H](C)N(C)C)(c1ccccc1)c1ccccc1 [LAAM, [(3S,6S)-6-(dimethylamino)-4,4-diphenylheptan-3-yl]acetate] | 284 ± 94.7 ng·h/mL | 274 ± 91.6 ng·h/mL | 288 ± 133 ng/mL | 30.6 ± 6.3 L/kg | 51.7 mL/min/kg | 69.5 ± 10 ng·h/mL | 65.7 ± 10.1 ng·h/mL | 20.7 ± 3.4 ng/mL | 24 ± 12 min | 19.6 ± 2.8% | 9.87 | approximately 50% | ~60% | –
2 | COCCc1ccc(OCC(O)CNC(C)C)cc1 (centres unmarked) [metoprolol] | – | – | – | – | – | – | – | – | – | – | – | – | – | 11 ×10⁻⁶ cm/s
